This is an account of results in patent US10463658B2, “Method of inhibiting FLT3 kinase” (AROG Pharmaceuticals, LLC, priority 2013, dated 2019).

Experiment [1] addresses T1, FLT3 ITD (Homo sapiens, UniProt P36888).
T1 sequence (P36888 1-993): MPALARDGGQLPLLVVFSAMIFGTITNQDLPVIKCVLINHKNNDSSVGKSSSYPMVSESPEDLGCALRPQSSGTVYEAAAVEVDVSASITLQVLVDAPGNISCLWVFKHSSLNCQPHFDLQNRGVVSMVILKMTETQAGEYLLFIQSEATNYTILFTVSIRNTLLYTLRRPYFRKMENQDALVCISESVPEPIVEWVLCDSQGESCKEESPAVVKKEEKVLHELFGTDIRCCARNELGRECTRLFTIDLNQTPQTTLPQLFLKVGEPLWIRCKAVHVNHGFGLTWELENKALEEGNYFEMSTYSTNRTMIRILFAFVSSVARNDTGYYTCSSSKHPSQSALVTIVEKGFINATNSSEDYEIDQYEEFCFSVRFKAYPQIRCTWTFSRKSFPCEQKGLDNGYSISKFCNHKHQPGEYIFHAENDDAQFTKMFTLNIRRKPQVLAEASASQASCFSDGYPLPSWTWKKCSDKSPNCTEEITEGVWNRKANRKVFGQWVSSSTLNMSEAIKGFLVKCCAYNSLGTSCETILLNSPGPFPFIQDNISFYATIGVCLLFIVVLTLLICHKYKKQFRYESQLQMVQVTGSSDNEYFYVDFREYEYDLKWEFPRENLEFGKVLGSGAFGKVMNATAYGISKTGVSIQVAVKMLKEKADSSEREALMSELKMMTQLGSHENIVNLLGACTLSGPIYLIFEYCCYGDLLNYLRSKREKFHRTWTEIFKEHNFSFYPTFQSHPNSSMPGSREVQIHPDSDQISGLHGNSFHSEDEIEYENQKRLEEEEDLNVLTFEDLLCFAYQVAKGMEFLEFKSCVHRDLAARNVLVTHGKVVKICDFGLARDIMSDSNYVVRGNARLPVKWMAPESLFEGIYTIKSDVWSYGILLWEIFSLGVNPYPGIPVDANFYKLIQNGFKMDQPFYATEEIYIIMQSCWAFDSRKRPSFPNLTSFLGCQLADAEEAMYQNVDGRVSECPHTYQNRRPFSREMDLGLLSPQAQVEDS
The note with it: read-out: Binding Constant (Kd), FLT3 ITD; CP-673,451 as tosylate salt.

Experiment [2] concerns the target T2, FLT3 TKD mutation D835Y (Homo sapiens, UniProt P36888, D835Y).
T2 construct: purchased Millipore
T2 sequence (P36888 27-993 D835Y): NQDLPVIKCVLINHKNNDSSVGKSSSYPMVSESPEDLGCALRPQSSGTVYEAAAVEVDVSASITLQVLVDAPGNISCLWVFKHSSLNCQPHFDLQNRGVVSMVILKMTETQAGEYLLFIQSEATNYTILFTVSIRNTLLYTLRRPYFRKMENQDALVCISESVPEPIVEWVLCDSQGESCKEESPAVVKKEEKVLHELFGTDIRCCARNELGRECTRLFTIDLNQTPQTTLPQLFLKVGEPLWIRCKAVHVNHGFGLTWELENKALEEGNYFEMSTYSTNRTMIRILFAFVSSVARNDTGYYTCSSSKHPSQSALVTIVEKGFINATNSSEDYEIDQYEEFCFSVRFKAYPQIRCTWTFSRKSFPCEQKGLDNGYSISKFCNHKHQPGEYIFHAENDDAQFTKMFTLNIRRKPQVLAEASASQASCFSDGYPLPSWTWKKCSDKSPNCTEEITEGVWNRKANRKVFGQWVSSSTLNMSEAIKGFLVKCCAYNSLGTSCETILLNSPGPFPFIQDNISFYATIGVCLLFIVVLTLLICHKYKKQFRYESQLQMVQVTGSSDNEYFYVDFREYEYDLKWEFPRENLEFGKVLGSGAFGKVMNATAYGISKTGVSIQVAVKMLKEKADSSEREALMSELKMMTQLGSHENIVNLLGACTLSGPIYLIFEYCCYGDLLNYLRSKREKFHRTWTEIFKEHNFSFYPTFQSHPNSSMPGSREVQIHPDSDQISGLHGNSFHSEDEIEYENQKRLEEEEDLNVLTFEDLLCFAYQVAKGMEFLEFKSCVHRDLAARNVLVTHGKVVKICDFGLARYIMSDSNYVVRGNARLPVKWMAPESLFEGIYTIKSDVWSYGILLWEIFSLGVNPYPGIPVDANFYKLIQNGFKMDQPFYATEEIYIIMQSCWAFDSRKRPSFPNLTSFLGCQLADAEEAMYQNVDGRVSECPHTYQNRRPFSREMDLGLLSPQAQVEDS
Briefly: Direct enzyme phosphorylation assay (Millipore Kinase IC50 Profiler), FLT3 D835Y. The note with it: tosylate salt; n=2; read-out: IC50 against the FLT3 TKD mutation D835Y. The format is biochemical. How it is done: Direct enzyme phosphorylation assay. The Millipore Kinase IC50 Profiler assay was used to screen the present invention against a panel of normal FLT3 and mutated FLT3 kinases. For assays of both kinases, the FLT3 enzyme was incubated with 8 mM of 3-(N-morpholino)propanesulfonic acid (MOPS) at a pH of 7.0, 0.2 mM Ethylenediaminetetraacetic acid (EDTA), 50 uM, a synthetic Abl peptide substrate […] (SEQ ID NO: 1), 10 mM MgAcetate and [γ-^33P-ATP]. The reaction was initiated by the addition of MgATp mix. The reaction mixture was incubated for 40 minutes at room temperature and halted by the addition of 3% phosphoric acid solution. 10 uL of the reaction solution was spotted on P30 filtermat and washed three times in 75 mM phosphoric acid for 5 minutes and then once in methanol prior to drying and scintillation counting. The scintillation values for each replicate, including positive and negative controls, were analyzed using XLFit version 5.1 to determine the IC50 values for the present invention against normal and mutated FLT3.

For experiment [3], the target named is T3, FLT3 non-autoinhibited (Homo sapiens, UniProt P36888).
T3 construct: host or cells: E. coli BL21-derived host (T7 phage) or HEK-293
T3 sequence (P36888 610-943 limits assumed): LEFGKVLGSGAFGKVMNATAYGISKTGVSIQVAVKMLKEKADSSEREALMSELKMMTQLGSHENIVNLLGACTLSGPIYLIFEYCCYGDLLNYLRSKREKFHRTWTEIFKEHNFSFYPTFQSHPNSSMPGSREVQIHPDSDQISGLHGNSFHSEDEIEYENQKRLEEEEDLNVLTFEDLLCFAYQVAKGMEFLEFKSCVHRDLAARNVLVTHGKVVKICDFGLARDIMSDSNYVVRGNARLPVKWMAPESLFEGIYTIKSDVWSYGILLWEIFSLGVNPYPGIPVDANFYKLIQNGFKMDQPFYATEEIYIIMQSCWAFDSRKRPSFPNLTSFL
Briefly: KINOMEscan KdElect competitive binding assay, non-autoinhibited FLT3. The note with it: tosylate salt. The text has this: Competitive binding assay.
The lysates were then centrifuged and filtered.

Consider `COCCOc1ccc2c(c1)ncn2-c1ccc2cccc(N3CCC(N)CC3)c2n1` [CP-673,451], for which the Kd came to 0.25 nM in experiment [1] and 0.35 nM in experiment [3] (average Kd, read-out: Binding Constant (Kd), FLT3 non-autoinhibited). For the same molecule, the IC50 in experiment [2] was 3 nM. Also, in experiment [3], the “affinity shift between the non-autoinhibited and autoinhibited states of FLT3” value is recorded as “approximately 50 fold”.

Broadly, the Kd is a measure of binding affinity in units of concentration. What is called IC50 is the midpoint of a concentration-inhibition curve.
